Data reported in PubChem BioAssay AID2060605 (Molecular Pharmacology Branch, DTP, NCI, 2025).

Tested on: 947758-054-R-J2-PDC spheroid growth, percent test/control
Assay: Anticancer human tumor 947758-054-R-J2-PDC patient-derived colon adenocarcinoma cell line growth inhibition [CLK]
Details: spheroids with HUVEC and MSC; for IC50: curve of first compound; for viability, T/C: stronger effect = lower value
Summary of the method: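 Multi-cell-type spheroids combined patient-derived tumor cells with HUVEC endothelial cells and human mesenchymal stem cells. Paired agents were dosed in half-log steps down from about clinical Cmax, or from 10 microM where Cmax was unknown.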
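Also: spheroids exposed to compounds for one week before readout.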
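For viability, T/C in this document: 100% = DMSO vehicle control wells.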

Compound: CCCS(=O)(=O)Nc1ccc(F)c(C(=O)c2c[nH]c3ncc(-c4ccc(Cl)cc4)cc23)c1F + CN1CCN(c2cc(C(=O)Nc3cc4cc(-c5cnn(C)c5)ccc4cn3)ccn2)CC1
- IC50 (second compound 0.0316 µM): > 10000 nM
- IC50 (second compound 0.1 µM): 910 nM
- IC50 (second compound 0.316 µM): < 31.6 nM
- IC50 (second compound 1 µM): < 31.6 nM
- IC50 (second compound 3.16 µM): < 31.6 nM
- IC50 (second compound 10 µM): < 31.6 nM
- viability, T/C (second compound 0.0316 µM, first compound 0.0316 µM): 99.5%
- viability, T/C (second compound 0.0316 µM, first compound 0.1 µM): 99.4%
- viability, T/C (second compound 0.0316 µM, first compound 0.316 µM): 79.7%
- viability, T/C (second compound 0.0316 µM, first compound 1 µM): 74.3%
- viability, T/C (second compound 0.0316 µM, first compound 3.16 µM): 79.6%
- viability, T/C (second compound 0.0316 µM, first compound 10 µM): 63.8%
- viability, T/C (second compound 0.1 µM, first compound 0.0316 µM): 128%
- viability, T/C (second compound 0.1 µM, first compound 0.1 µM): 176%
- viability, T/C (second compound 0.1 µM, first compound 0.316 µM): 101%
- viability, T/C (second compound 0.1 µM, first compound 1 µM): 50.9%
- viability, T/C (second compound 0.1 µM, first compound 3.16 µM): 50.8%
- viability, T/C (second compound 0.1 µM, first compound 10 µM): 34.5%
- viability, T/C (second compound 0.316 µM, first compound 0.0316 µM): 3.8%
- viability, T/C (second compound 0.316 µM, first compound 0.1 µM): 4.14%
- viability, T/C (second compound 0.316 µM, first compound 0.316 µM): 4.9%
- viability, T/C (second compound 0.316 µM, first compound 1 µM): 4.06%
- viability, T/C (second compound 0.316 µM, first compound 3.16 µM): 4.73%
- viability, T/C (second compound 0.316 µM, first compound 10 µM): 3.59%
- viability, T/C (second compound 1 µM, first compound 0.0316 µM): 0.85%
- viability, T/C (second compound 1 µM, first compound 0.1 µM): 1%
- viability, T/C (second compound 1 µM, first compound 0.316 µM): 0.17%
- viability, T/C (second compound 1 µM, first compound 1 µM): 0.15%
- viability, T/C (second compound 1 µM, first compound 3.16 µM): 1.2%
- viability, T/C (second compound 1 µM, first compound 10 µM): 0.11%
- viability, T/C (second compound 3.16 µM, first compound 0.0316 µM): 0.94%
- viability, T/C (second compound 3.16 µM, first compound 0.1 µM): 1.18%
- viability, T/C (second compound 3.16 µM, first compound 0.316 µM): 1.32%
- viability, T/C (second compound 3.16 µM, first compound 1 µM): 0.16%
- viability, T/C (second compound 3.16 µM, first compound 3.16 µM): 0.84%
- viability, T/C (second compound 3.16 µM, first compound 10 µM): 1.58%
- viability, T/C (second compound 10 µM, first compound 0.0316 µM): 1.3%
- viability, T/C (second compound 10 µM, first compound 0.1 µM): 1.75%
- viability, T/C (second compound 10 µM, first compound 0.316 µM): 0.41%
- viability, T/C (second compound 10 µM, first compound 1 µM): 0.42%
- viability, T/C (second compound 10 µM, first compound 3.16 µM): 1.25%
- viability, T/C (second compound 10 µM, first compound 10 µM): 0.41%

Compound: NC(=O)C(=Cn1cnc(-c2cc(C(F)(F)F)cc(C(F)(F)F)c2)n1)c1cncnc1 + CN1CCN(c2cc(C(=O)Nc3cc4cc(-c5cnn(C)c5)ccc4cn3)ccn2)CC1
- IC50 (second compound 0.0316 µM): 78.5 nM
- IC50 (second compound 0.1 µM): < 9.49 nM
- IC50 (second compound 0.316 µM): < 9.49 nM
- IC50 (second compound 1 µM): < 9.49 nM
- IC50 (second compound 3.16 µM): < 9.49 nM
- IC50 (second compound 10 µM): < 9.49 nM
- viability, T/C (second compound 0.0316 µM, first compound 0.00949 µM): 195%
- viability, T/C (second compound 0.0316 µM, first compound 0.03 µM): 224%
- viability, T/C (second compound 0.0316 µM, first compound 0.0949 µM): 44.3%
- viability, T/C (second compound 0.0316 µM, first compound 0.3 µM): 19%
- viability, T/C (second compound 0.0316 µM, first compound 0.949 µM): 10.3%
- viability, T/C (second compound 0.0316 µM, first compound 3 µM): 0.87%
- viability, T/C (second compound 0.1 µM, first compound 0.00949 µM): 42.9%
- viability, T/C (second compound 0.1 µM, first compound 0.03 µM): 24.9%
- viability, T/C (second compound 0.1 µM, first compound 0.0949 µM): 16.4%
- viability, T/C (second compound 0.1 µM, first compound 0.3 µM): 6.99%
- viability, T/C (second compound 0.1 µM, first compound 0.949 µM): 0.38%
- viability, T/C (second compound 0.1 µM, first compound 3 µM): 0.42%
- viability, T/C (second compound 0.316 µM, first compound 0.00949 µM): 0.44%
- viability, T/C (second compound 0.316 µM, first compound 0.03 µM): 0.27%
- viability, T/C (second compound 0.316 µM, first compound 0.0949 µM): 0.21%
- viability, T/C (second compound 0.316 µM, first compound 0.3 µM): 1.5%
- viability, T/C (second compound 0.316 µM, first compound 0.949 µM): 0.15%
- viability, T/C (second compound 0.316 µM, first compound 3 µM): 0.3%
- viability, T/C (second compound 1 µM, first compound 0.00949 µM): 0.13%
- viability, T/C (second compound 1 µM, first compound 0.03 µM): 0.18%
- viability, T/C (second compound 1 µM, first compound 0.0949 µM): 0.39%
- viability, T/C (second compound 1 µM, first compound 0.3 µM): 0.33%
- viability, T/C (second compound 1 µM, first compound 0.949 µM): 1.84%
- viability, T/C (second compound 1 µM, first compound 3 µM): 0.25%
- viability, T/C (second compound 3.16 µM, first compound 0.00949 µM): 0.31%
- viability, T/C (second compound 3.16 µM, first compound 0.03 µM): 0.76%
- viability, T/C (second compound 3.16 µM, first compound 0.0949 µM): 0.81%
- viability, T/C (second compound 3.16 µM, first compound 0.3 µM): 0.66%
- viability, T/C (second compound 3.16 µM, first compound 0.949 µM): 1.31%
- viability, T/C (second compound 3.16 µM, first compound 3 µM): 1.56%
- viability, T/C (second compound 10 µM, first compound 0.00949 µM): 0.47%
- viability, T/C (second compound 10 µM, first compound 0.03 µM): 0.74%
- viability, T/C (second compound 10 µM, first compound 0.0949 µM): 1.04%
- viability, T/C (second compound 10 µM, first compound 0.3 µM): 0.9%
- viability, T/C (second compound 10 µM, first compound 0.949 µM): 1.38%
- viability, T/C (second compound 10 µM, first compound 3 µM): 0.53%
